In BindingDB's records for doi:10.1021/cc100076k (Universidade Federal De SaO Carlo, 2010):
pIC50: −log10 of the molar value.

Molecular target: T1, Cathepsin L2 (Homo sapiens, UniProt O60911)
T1 sequence (O60911 whole entry): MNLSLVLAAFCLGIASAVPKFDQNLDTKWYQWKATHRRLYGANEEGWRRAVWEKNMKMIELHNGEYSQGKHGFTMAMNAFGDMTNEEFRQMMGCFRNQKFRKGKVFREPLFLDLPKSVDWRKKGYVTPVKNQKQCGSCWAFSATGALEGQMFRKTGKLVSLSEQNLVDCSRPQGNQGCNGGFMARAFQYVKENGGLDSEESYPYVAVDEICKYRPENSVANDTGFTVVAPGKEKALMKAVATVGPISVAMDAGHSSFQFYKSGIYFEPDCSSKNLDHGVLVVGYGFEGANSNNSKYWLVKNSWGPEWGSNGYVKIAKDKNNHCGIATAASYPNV
Assay: Inhibition Activity Assay
Conditions: pH 5.5; 27 °C
Source text: Recombinant human cathepsin V was expressed and purified as described previously.

Row | Structure (SMILES) | pIC50
1 | COc1ccc(C(=O)/C=C/c2ccc(OC)cc2OC)c(O)c1 [Flavonid, 5a] | < 4.30
2 | COc1cccc(Cl)c1/C=C/C(=O)c1ccc(F)cc1O [Flavonid, 5b] | < 4.30
3 | COc1cc(OC)c2c(=O)cc(-c3ccc(OC)c(OC)c3OC)oc2c1 [Flavonid, 6[2,3]] | < 4.30
4 | COc1cc(OC)c2c(=O)cc(-c3ccc(-c4ccccc4)cc3)oc2c1 [Flavonid, 6[2,6]] | < 4.30
5 | COc1ccc(-c2cc(=O)c3cc(OC)ccc3o2)c(OC)c1 [Flavonid, 6[4,2]] | < 4.30
6 | COc1ccc2oc(-c3ccc(OC)c(OC)c3OC)cc(=O)c2c1 [Flavonid, 6[4,3]] | < 4.30
7 | COc1cccc(Cl)c1-c1cc(=O)c2ccc(F)cc2o1 [Flavonid, 6b] | < 4.30
8 | O=c1cc(-c2c(F)cccc2Cl)oc2cc(F)ccc12 [Flavonid, 6e] | < 4.30

Now those with a higher pIC50, led by results:

Row | pIC50 | Structure (SMILES)
9 | 4.92 | COc1ccc(-c2cc(=O)c3cc(OC)ccc3o2)cc1 [6-methoxy-2-(4-methoxyphenyl)-1-benzopyran-4-one]
10 | 4.72 | COc1ccc(-c2cc(=O)c3c(OC)cc(OC)cc3o2)c(OC)c1 [Flavonid, 6[2,2]]
11 | 6.10 | COc1ccc(-c2cc(=O)c3cc(F)ccc3o2)cc1 [Flavonid, 6[3,1]]
12 | 5.80 | COc1ccc(-c2cc(=O)c3cc(F)ccc3o2)c(OC)c1 [Flavonid, 6[3,2]]
13 | 5.39 | COc1ccc(-c2cc(=O)c3cc(F)ccc3o2)c(OC)c1OC [Flavonid, 6[3,3]]
14 | 5.54 | O=c1cc(-c2ccc(-c3ccccc3)cc2)oc2ccc(F)cc12 [Flavonid, 6[3,6]]
15 | 4.72 | COc1ccc2oc(-c3ccc(-c4ccccc4)cc3)cc(=O)c2c1 [Flavonid, 6[4,6]]
16 | 5.92 | COc1ccc(-c2cc(=O)c3cc(Br)ccc3o2)c(OC)c1 [Flavonid, 6d]
